In patent US6482849B1, “Inhibitors of α4β1 mediated cell adhesion” (Tanabe Seiyaku Co., Ltd., priority 1997, dated 2002):

Columns and labels:
[1] = system: VLA-4 integrin-dependent eosinophil infiltration; experiment: Dextran pleurisy model (dextran-induced pleural leukocyte infiltration); type: in vivo, C57BL/6 mice; details: 4 h post-induction
Procedure: C57BL/6 mice (Jackson, Bar Harbor, Me.;), 6-8 weeks old, weighing 20-25 g were used throughout. All mice were acclimated for at least 7-14 days after arrival and maintained under controlled temperature (20-22° C.) and a 12 hr daily light cycle (6.00 A.M.-6.00 P.M.). Mice were housed in laminar flow racks and checked biweekly for viral infections (mouse hepatitis virus, minute virus of mice, rodent orphan parvovirus, Sendai) with kits obtained from Oreganon Teknika (Durham, N.C.) using established enzyme-linked immunoabsorbent assays. Mice testing positive for any of the above were omitted from the study. All mice were fed standard laboratory chow (Upjohn Lab Rodent Irradiated Mouse Chow, #5011-3, PMI Feeds, St. Louis, Mo.) and acidified drinking water (pH 5.0) ad libitum.
Intrapleural injections were made using a 27 G needle cut to 3-4 mm and blunted by filing. Injections were made by inserting the needle between the mid-intercostal ribs on the right side of the thoracic cavity.
Dextran (MW 5-40×10^6, St Louis, Mo.) was injected as a 10% solution in saline in a volume of 100 μl/mouse. Care was taken to avoid bleeding at the site of injection at which the intercostal muscles were cut to facilitate smooth insertion of the needle.
Pleural leukocytes were collected as follows: 4 h post-induction, pleural inflammatory exudate was removed by washing with 2×1.0 ml Ca^++/Mg^++ free HBSS (Gibco, Grand Island, N.Y.) containing 45 mg EDTA/100 ml HBSS, 4° C. Total leukocyte counts were made by hemocytometer following erythrocyte lysis in 2% acetic acid in PBS buffer; exudate leukocyte pellets were resuspended in serum for cytospin preparations and stained (Diff Quik, Baxter Healthcare, McGraw Park, Ill.) for differential leukocyte counts (neutrophils, eosinophils, and mononuclear leukocytes).
The pleural cavities of mice receiving either no intrapleural injection, or saline were washed and the cells counted in the same way to estimate baseline or saline-induced pleural leukocyte counts respectively.
All drugs were dissolved in PBS and the pH adjusted to 7.5 with NaOH. Each drug was administered intravenously through the retroorbital sinus at hourly intervals (0-3 h) starting from time “0” as indicated.
The following camphoric acid analogues were tested for their inhibitory effects on dextran-induced leukocyte infiltration: Examples 4, 12, 54, 63, 166, 93, 180, 181, 183, 184, 217, Camphoric acid or PBS (saline) was administered iv. as a control. Inhibition of eosinophil infiltration, which was suppressed by anti-alpha-4 Mab (PS/2, 50%), was used as a readout of VLA-4 antagonist activity of the camphoric acids tested. Data for neutrophils are also reported.

[2] = target: T1, α4β1 integrin (Jurkat T-cell adhesion to IL-1 stimulated endothelial cell monolayers) (Homo sapiens, UniProt P05556+P13612); experiment: Jurkat-Endothelial Cell Adhesion Assay (Jurkat EC); type: cell-based; details: Jurkat cells on IL-1 stimulated HUVEC monolayers
T1 construct: a T-cell line, Jurkat, known to express the α4β1 integrin; host or cells: Jurkat T-cell line
T1 sequence (P13612 34-1032): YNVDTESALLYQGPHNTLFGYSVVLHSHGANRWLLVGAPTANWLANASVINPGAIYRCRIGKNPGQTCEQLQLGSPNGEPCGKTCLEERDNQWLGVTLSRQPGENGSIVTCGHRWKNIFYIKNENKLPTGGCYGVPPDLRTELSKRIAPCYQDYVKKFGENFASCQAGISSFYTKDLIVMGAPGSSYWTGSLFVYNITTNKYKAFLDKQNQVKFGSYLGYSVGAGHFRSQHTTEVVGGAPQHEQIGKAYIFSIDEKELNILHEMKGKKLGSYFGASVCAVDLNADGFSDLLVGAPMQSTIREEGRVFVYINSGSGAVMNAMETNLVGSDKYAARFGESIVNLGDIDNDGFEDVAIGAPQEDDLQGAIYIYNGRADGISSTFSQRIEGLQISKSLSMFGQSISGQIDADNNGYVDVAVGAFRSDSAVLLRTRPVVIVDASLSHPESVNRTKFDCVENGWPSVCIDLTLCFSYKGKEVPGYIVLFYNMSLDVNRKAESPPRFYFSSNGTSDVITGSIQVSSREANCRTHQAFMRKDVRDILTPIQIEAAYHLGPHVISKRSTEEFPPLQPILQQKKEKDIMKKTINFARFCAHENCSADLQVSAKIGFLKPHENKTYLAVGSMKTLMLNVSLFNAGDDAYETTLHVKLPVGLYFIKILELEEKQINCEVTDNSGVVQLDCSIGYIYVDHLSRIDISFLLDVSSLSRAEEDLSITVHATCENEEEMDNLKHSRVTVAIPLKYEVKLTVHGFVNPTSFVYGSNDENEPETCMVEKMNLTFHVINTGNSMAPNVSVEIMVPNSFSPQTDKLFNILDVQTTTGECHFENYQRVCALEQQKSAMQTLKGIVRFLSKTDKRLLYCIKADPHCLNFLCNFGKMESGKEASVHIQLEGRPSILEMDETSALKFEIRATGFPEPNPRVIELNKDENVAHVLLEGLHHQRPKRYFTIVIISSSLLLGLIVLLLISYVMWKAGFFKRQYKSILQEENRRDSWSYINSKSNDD
T1 sequence (P05556 21-798): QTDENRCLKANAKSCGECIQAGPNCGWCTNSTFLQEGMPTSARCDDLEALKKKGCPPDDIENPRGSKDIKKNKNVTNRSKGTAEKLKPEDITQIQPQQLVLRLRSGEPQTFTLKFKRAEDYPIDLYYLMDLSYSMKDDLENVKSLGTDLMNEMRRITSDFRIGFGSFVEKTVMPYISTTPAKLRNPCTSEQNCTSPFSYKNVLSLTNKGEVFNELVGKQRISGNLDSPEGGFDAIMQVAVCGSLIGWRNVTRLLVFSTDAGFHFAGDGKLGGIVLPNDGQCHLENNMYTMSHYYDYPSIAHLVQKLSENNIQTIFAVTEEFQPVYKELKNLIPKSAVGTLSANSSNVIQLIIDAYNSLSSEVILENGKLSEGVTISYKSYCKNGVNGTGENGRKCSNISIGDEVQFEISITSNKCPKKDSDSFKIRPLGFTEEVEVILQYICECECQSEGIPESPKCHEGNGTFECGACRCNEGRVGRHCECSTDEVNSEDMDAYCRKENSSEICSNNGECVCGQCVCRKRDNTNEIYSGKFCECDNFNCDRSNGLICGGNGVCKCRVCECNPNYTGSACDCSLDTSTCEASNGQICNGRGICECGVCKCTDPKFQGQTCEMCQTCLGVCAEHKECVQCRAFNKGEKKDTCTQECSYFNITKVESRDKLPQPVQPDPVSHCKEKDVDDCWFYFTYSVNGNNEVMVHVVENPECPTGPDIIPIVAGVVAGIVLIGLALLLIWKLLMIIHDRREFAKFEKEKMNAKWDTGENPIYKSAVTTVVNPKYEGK
Procedure, shortened: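 BCECF-loaded Jurkat cells (5×10^5) mixed with compound (generally 100, 20, 5 and 1.25 μM) and added to HUVEC monolayers prestimulated 4 hr with 0.1 ng/ml IL-1, in DMEM-HSA. After 5 min on ice and 20 min at 37° C, washed; fluorescence gives % adhesion relative to no-compound control set at 100%.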

[3] = target: T2, α4β1 integrin (Jurkat cell adhesion to immobilized CS-1 derived peptide CLHPGEILDVPST) (Homo sapiens, UniProt P05556+P13612); experiment: Jurkat-CS-1 Assay; type: cell-based; details: Jurkat cells on CS-1 peptide coated plates
T2 construct: 100 μl of Jurkat cells (2.5×10^6 cells/ml) in DMEM plus BSA; endogenous in cells; host or cells: Jurkat T-cell line
T2 sequence (P13612 34-1032): as the sequence (P13612 34-1032) above
T2 sequence (P05556 21-798): as the sequence (P05556 21-798) above
Procedure, shortened: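 CS-1 peptide was SPDP-crosslinked onto HSA-coated plates and blocked with BSA. Jurkat cells (2.5×10^6 cells/ml) in DMEM/BSA were mixed with compound, generally at 100, 20, 5 and 1.25 μM, and allowed to adhere for 1 hr at 37° C. Bound cells were fixed, stained with toluidine blue and quantified by OD590.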

[4] = 50 mg/kg × 2 iv (0h,+1h relative to dextran)
[5] = 50 mg/kg × 4 iv (0h,+1h,+2h,+3h relative to dextran)

Compound | %Δ Pleural Leukocytes, Eos [1, 4] | %Δ Pleural Leukocytes, Neutro [1, 4] | %Δ Pleural Leukocytes, Eos [1, 5] | %Δ Pleural Leukocytes, Neutro [1, 5] | IC50 [2] | IC50 [3] | melting point
CC1(C)[C@@H](C(=O)N[C@@H](Cc2ccc(OCc3c(Cl)cccc3Cl)cc2)C(=O)O)CC[C@@]1(C)C(=O)O (relative stereo) [Example 12, (1S-cis)-N-[(3-Carboxy-2,2,3-trimethylcyclopentyl)carbonyl]-O-[(2,6-dichlorophenyl)methyl]-L-tyrosine] | A (A≦−50) | B (−50<B<−10) | A (A≦−50) | B (−50<B<−10) | ≤ 800 nM | ≤ 80 nM | –
COc1ccccc1C(=O)Nc1ccc(C[C@H](NC(=O)[C@H]2CC[C@@](C)(C(=O)O)C2(C)C)C(=O)O)cc1 [Example 95] | – | – | – | – | 800 to 5000 nM | 80 to 500 nM | 140 to 143 °C
CC1(C)[C@@H](C(=O)N[C@@H](Cc2ccc(NC(=O)c3cc(Br)ccc3Br)cc2)C(=O)O)CC[C@@]1(C)C(=O)O [Example 97] | – | – | – | – | ≤ 800 nM | ≤ 80 nM | 170 to 173 °C
CC1(C)[C@@H](C(=O)N[C@@H](Cc2ccc(NC(=O)c3cc(C(F)(F)F)ccc3C(F)(F)F)cc2)C(=O)O)CC[C@@]1(C)C(=O)O [Example 104] | – | – | – | – | ≤ 800 nM | ≤ 80 nM | 148 to 150 °C
Cc1cccc(Cl)c1C(=O)Nc1ccc(C[C@H](NC(=O)[C@H]2CC[C@@](C)(C(=O)O)C2(C)C)C(=O)O)cc1 [Example 106] | – | – | – | – | ≤ 800 nM | ≤ 80 nM | 165 to 168 °C
CC1(C)[C@@H](C(=O)N[C@@H](Cc2ccc(NC(=O)c3ccccc3C(F)(F)F)cc2)C(=O)O)CC[C@@]1(C)C(=O)O [Example 108] | – | – | – | – | ≤ 800 nM | ≤ 80 nM | 180 to 183 °C
CC1(C)[C@@H](C(=O)N[C@@H](Cc2ccc(NC(=O)c3ccccc3I)cc2)C(=O)O)CC[C@@]1(C)C(=O)O [Example 110] | – | – | – | – | ≤ 800 nM | ≤ 80 nM | 162 to 165 °C
CC1(C)[C@@H](C(=O)N[C@@H](Cc2ccc(NC(=O)c3ccccc3Br)cc2)C(=O)O)CC[C@@]1(C)C(=O)O [Example 112] | – | – | – | – | ≤ 800 nM | ≤ 80 nM | 156 to 158 °C
CC1(C)[C@@H](C(=O)N[C@@H](Cc2ccc(NC(=O)c3ccc(Cl)c(Cl)c3)cc2)C(=O)O)CC[C@@]1(C)C(=O)O [Example 114] | – | – | – | – | ≤ 800 nM | 80 to 500 nM | 155 to 157 °C
CC1(C)[C@@H](C(=O)N[C@@H](Cc2ccc(NC(=O)c3ccc(-c4ccccc4)cc3)cc2)C(=O)O)CC[C@@]1(C)C(=O)O [Example 116] | – | – | – | – | ≤ 800 nM | ≤ 80 nM | 162 to 165 °C
CC1(C)[C@@H](C(=O)N[C@@H](Cc2ccc(NC(=O)c3ccccc3Cl)cc2)C(=O)O)CC[C@@]1(C)C(=O)O [Example 120] | – | – | – | – | 800 to 5000 nM | 80 to 500 nM | 143 to 145 °C
CC1(C)[C@@H](C(=O)N[C@@H](Cc2ccc(NC(=O)Cc3ccccc3)cc2)C(=O)O)CC[C@@]1(C)C(=O)O [Example 121] | – | – | – | – | 800 to 5000 nM | 500 to 1000 nM | 240 to 242 °C
CC1(C)[C@@H](C(=O)N[C@@H](Cc2ccc(NC(=O)c3ccc4ccccc4c3)cc2)C(=O)O)CC[C@@]1(C)C(=O)O [Example 124] | – | – | – | – | 800 to 5000 nM | 80 to 500 nM | 141 to 143 °C
CC1(C)[C@@H](C(=O)N[C@@H](Cc2ccc(NC(=O)c3ccc(Cl)cc3)cc2)C(=O)O)CC[C@@]1(C)C(=O)O [Example 128] | – | – | – | – | 800 to 5000 nM | 80 to 500 nM | 185 to 188 °C
CC1(C)[C@@H](C(=O)N[C@@H](Cc2ccc(NC(=O)c3ccco3)cc2)C(=O)O)CC[C@@]1(C)C(=O)O [Example 130] | – | – | – | – | 800 to 5000 nM | 80 to 500 nM | 158 to 161 °C
CC1(C)[C@@H](C(=O)N[C@@H](Cc2ccc(NC(=O)c3ccccc3F)cc2)C(=O)O)CC[C@@]1(C)C(=O)O [Example 132] | – | – | – | – | 800 to 5000 nM | 80 to 500 nM | 117 to 120 °C
CC1(C)[C@@H](C(=O)N[C@@H](Cc2ccc(NC(=O)c3cccc4c3Cc3ccccc3-4)cc2)C(=O)O)CC[C@@]1(C)C(=O)O [Example 136] | – | – | – | – | 5000 to 10000 nM | 500 to 1000 nM | 160 to 163 °C
CC(C)COC(=O)Nc1ccc(C[C@H](NC(=O)[C@H]2CC[C@@](C)(C(=O)O)C2(C)C)C(=O)O)cc1 [Example 141] | – | – | – | – | 800 to 5000 nM | 500 to 1000 nM | 125 to 128 °C
Cc1ccccc1C(=O)Nc1ccc(C[C@H](NC(=O)[C@H]2CC[C@@](C)(C(=O)O)C2(C)C)C(=O)O)cc1 [Example 142] | – | – | – | – | 800 to 5000 nM | 80 to 500 nM | 152 to 155 °C
CC1(C)[C@@H](C(=O)N[C@@H](Cc2ccc(NC(=O)c3ccccc3N)cc2)C(=O)O)CC[C@@]1(C)C(=O)O [Example 144] | – | – | – | – | 800 to 5000 nM | 80 to 500 nM | 195 to 198 °C
CC1(C)[C@@H](C(=O)N[C@@H](Cc2ccc(NC(=O)C3Cc4ccccc4CN3)cc2)C(=O)O)CC[C@@]1(C)C(=O)O (stereo partly drawn) [Example 146] | – | – | – | – | 800 to 5000 nM | 80 to 500 nM | 208 to 211 °C
Cc1ccc(S(=O)(=O)Nc2ccc(C[C@H](NC(=O)[C@H]3CC[C@@](C)(C(=O)O)C3(C)C)C(=O)O)cc2)cc1 [Example 150] | – | – | – | – | 800 to 5000 nM | 500 to 1000 nM | 220 to 223 °C
CC1(C)[C@@H](C(=O)N[C@@H](Cc2ccc(NCc3c(Cl)cccc3Cl)cc2)C(=O)O)CC[C@@]1(C)C(=O)O [Example 152] | – | – | – | – | ≤ 800 nM | ≤ 80 nM | 100 to 103 °C
CC1(C)[C@@H](C(=O)N[C@@H](Cc2ccc(OCc3c(Cl)cccc3Cl)cc2)C(=O)O)CC[C@@]1(C)C(N)=O [Example 155, (1S-cis)-N-[[3-(Aminocarbonyl)-2,2,3-trimethylcyclopentyl]carbonyl]-O-[(2,6-dichlorophenyl)methyl]-L-tyrosine] | – | – | – | – | 5000 to 10000 nM | 500 to 1000 nM | 102 to 104 °C
CC1(C)[C@@H](C(=O)N[C@@H](Cc2ccc(NC(=O)c3cccnc3Cl)cc2)C(=O)O)CC[C@@]1(C)C(=O)O [Example 208, (1S-cis)-N-[(3-Carboxy-2,2,3-trimethylcyclopentyl)carbonyl]-4-[[(2-chloro-3-pyridinyl)carbonyl]amino]-L-phenylalanine] | – | – | – | – | ≤ 800 nM | 80 to 500 nM | 172 to 174 °C
CC1(C)[C@@H](C(=O)N[C@@H](Cc2ccc(NC(=O)c3ccc(Cl)nc3Cl)cc2)C(=O)O)CC[C@@]1(C)C(=O)O [Example 209, (1S-cis)-N-[(3-Carboxy-2,2,3-trimethylcyclopentyl)carbonyl]-4-[[(2,6-dichloro-3-pyridinyl)carbonyl]amino]-L-phenylalanine] | – | – | – | – | ≤ 800 nM | ≤ 80 nM | 246 to 247 °C
COc1nc(Cl)ccc1C(=O)Nc1ccc(C[C@H](NC(=O)[C@H]2CC[C@@](C)(C(=O)O)C2(C)C)C(=O)O)cc1 [Example 210, (1S-cis)-N-[(3-Carboxy-2,2,3-trimethylcyclopentyl)carbonyl]-4-[[(2-methoxy-6-chloropyridin-3-yl)carbonyl]-amino]-L-phenylalanine] | – | – | – | – | ≤ 800 nM | ≤ 80 nM | 128 to 131 °C
